Laboratory results from ChEMBL document CHEMBL2057120, “Chromatin structure determines accessibility of a hairpin polyamide-chlorambucil conjugate at histone H4 genes in pancreatic cancer cells” (Bioorg Med Chem Lett, 2012).
The source made the active and inactive calls. No cut-off for these calls is given here.

What was measured:
MIA PaCa-2 [1] = assay: Growth inhibition of human MIAPaCa2 cells after 6 days by MTS assay; format: functional; conditions: MIA PaCa-2, 144 h
[2] = Growth inhibition of human HEK293 cells after 6 days by MTS assay; format: cell-based
HEK293 [3] = assay: Selectivity ratio of GI50 for human HEK293 cells to GI50 for human MIAPaCa2 cells
[4] = Drug uptake in human HEK293 cell nucleus using BODIPY labeled compound at 500 uM after 16 hrs by […] microscopic analysis; format: ADME, cell-based; conditions: hek293, 16 h
MIA PaCa-2 [5] = assay: Downregulation of histone H4A mRNA expression in human MIAPaCa2 cells at 50 uM after 72 hrs by quantitative RT-PCR analysis; format: functional, cell-based
MIA PaCa-2 [6] = assay: Downregulation of histone H4D mRNA expression in human MIAPaCa2 cells at 50 uM after 72 hrs by quantitative RT-PCR analysis; format: functional, cell-based
MIA PaCa-2 [7] = assay: Downregulation of histone HJK mRNA expression in human MIAPaCa2 cells at 50 uM after 72 hrs by quantitative RT-PCR analysis; format: functional, cell-based
MIA PaCa-2 [8] = assay: Downregulation of histone H4C mRNA expression in human MIAPaCa2 cells at 50 uM after 72 hrs by quantitative RT-PCR analysis; format: functional, cell-based
MIA PaCa-2 [9] = assay: Downregulation of histone H4H mRNA expression in human MIAPaCa2 cells at 50 uM after 72 hrs by quantitative RT-PCR analysis; format: functional, cell-based
MIA PaCa-2 [10] = assay: Downregulation of histone H4B mRNA expression in human MIAPaCa2 cells at 50 uM after 72 hrs by quantitative RT-PCR analysis; format: functional, cell-based
MIA PaCa-2 [11] = assay: Downregulation of histone H4E mRNA expression in human MIAPaCa2 cells at 50 uM after 72 hrs by quantitative RT-PCR analysis; format: functional, cell-based
MIA PaCa-2 [12] = assay: Downregulation of histone H4L mRNA expression in human MIAPaCa2 cells at 50 uM after 72 hrs by quantitative RT-PCR analysis; format: functional, cell-based
MIA PaCa-2 [13] = assay: Downregulation of histone H4AB mRNA expression in human MIAPaCa2 cells at 50 uM after 72 hrs by quantitative RT-PCR analysis; format: functional, cell-based
MIA PaCa-2 [14] = assay: Downregulation of histone 4H4 mRNA expression in human MIAPaCa2 cells at 50 uM after 72 hrs by quantitative RT-PCR analysis; format: functional, cell-based
HEK293 [15] = assay: Downregulation of histone H4A mRNA expression in human HEK293 cells at 250 uM after 72 hrs by quantitative RT-PCR analysis; format: ADME, cell-based; conditions: hek293, 72 h
HEK293 [16] = assay: Downregulation of histone H4D mRNA expression in human HEK293 cells at 250 uM after 72 hrs by quantitative RT-PCR analysis; format: ADME, cell-based; conditions: hek293, 72 h
HEK293 [17] = assay: Downregulation of histone HJK mRNA expression in human HEK293 cells at 250 uM after 72 hrs by quantitative RT-PCR analysis; format: ADME, cell-based; conditions: hek293, 72 h
HEK293 [18] = assay: Downregulation of histone H4C mRNA expression in human HEK293 cells at 250 uM after 72 hrs by quantitative RT-PCR analysis; format: ADME, cell-based; conditions: hek293, 72 h
HEK293 [19] = assay: Downregulation of histone H4H mRNA expression in human HEK293 cells at 250 uM after 72 hrs by quantitative RT-PCR analysis; format: ADME, cell-based; conditions: hek293, 72 h
HEK293 [20] = assay: Downregulation of histone H4B mRNA expression in human HEK293 cells at 250 uM after 72 hrs by quantitative RT-PCR analysis; format: ADME, cell-based; conditions: hek293, 72 h
HEK293 [21] = assay: Downregulation of histone H4E mRNA expression in human HEK293 cells at 250 uM after 72 hrs by quantitative RT-PCR analysis; format: ADME, cell-based; conditions: hek293, 72 h
HEK293 [22] = assay: Downregulation of histone H4L mRNA expression in human HEK293 cells at 250 uM after 72 hrs by quantitative RT-PCR analysis; format: ADME, cell-based; conditions: hek293, 72 h
HEK293 [23] = assay: Downregulation of histone H4AB mRNA expression in human HEK293 cells at 250 uM after 72 hrs by quantitative RT-PCR analysis; format: ADME, cell-based; conditions: hek293, 72 h
HEK293 [24] = assay: Downregulation of histone 4H4 mRNA expression in human HEK293 cells at 250 uM after 72 hrs by quantitative RT-PCR analysis; format: ADME, cell-based; conditions: hek293, 72 h

CN(C)CCCNC(=O)CCNC(=O)c1cc(NC(=O)c2cc(NC(=O)c3cc(NC(=O)c4cc(NC(=O)[C@@H](CCNC(=O)CCCc5ccc(N(CCCl)CCCl)cc5)NC(=O)c5nc(NC(=O)CCNC(=O)c6nc(NC(=O)c7nccn7C)cn6C)cn5C)cn4C)cn3C)cn2C)cn1C
GI50 (MIA PaCa-2 [1]): 16 nM
GI50 at 144 h [2]: 400 nM
RatioGI50 (HEK293 [3]): 25
Drug uptake [4]: Active
Activity (MIA PaCa-2 [5]): Active
Activity (MIA PaCa-2 [6]): Active
Activity (MIA PaCa-2 [7]): Active
Activity (MIA PaCa-2 [8]): Active
Activity (MIA PaCa-2 [9]): Active
Activity (MIA PaCa-2 [10]): Active
Activity (MIA PaCa-2 [11]): Active
Activity (MIA PaCa-2 [12]): Active
Activity (MIA PaCa-2 [13]): Active
Activity (MIA PaCa-2 [14]): Active
Activity (HEK293 [15]): Non-toxic
Activity (HEK293 [16]): Non-toxic
Activity (HEK293 [17]): Non-toxic
Activity (HEK293 [18]): Non-toxic
Activity (HEK293 [19]): Non-toxic
Activity (HEK293 [20]): Non-toxic
Activity (HEK293 [21]): Non-toxic
Activity (HEK293 [22]): Non-toxic
Activity (HEK293 [23]): Non-toxic
Activity (HEK293 [24]): Non-toxic
